Measured values taken from patent US20230081720A1, “MCL-1 INHIBITOR ANTIBODY-DRUG CONJUGATES AND METHODS OF USE” (NOVARTIS AG, priority 2019, published 2023).
pIC50: −log10 of the molar value. Marks after values point to notes of the source that are not given here.

How the values were obtained:
[1] = molecular target: Mcl-1 protein (Homo sapiens, UniProt Q07820); assay: Inhibition of Mcl-1 by fluorescence polarization (FP); type: binding; conditions: fluorescein-labelled ligand 1 nM, Mcl-1 protein 5 nM
Description: The relative binding potency of each compound was determined via Fluorescence Polarization (FP).
An 11-point serial dilution of each compound was prepared in DMSO and 2 PI transferred into flat bottomed, low binding, 384-well plate (final DMSO concentration 5%). 38 μl of buffer (10 mM 4-(2-hydroxyethyl)-1-piperazineethanesulfonic acid [HEPES], 150 mM NaCl, 0.05% Tween 20, pH 7.4), containing the fluorescein-labelled ligand (final concentration 1 nM) and Mcl-1 protein (final concentration 5 nM) was then added.

[2] = tested on: NCI-H929 multiple myeloma cell line; assay: In vitro cytotoxicity, Microculture Tetrazolium Assay (MTT); type: cell-based; conditions: NCI-H929 cells, 48 hours
Description: Cytotoxicity studies were carried out on the NCI-H929 multiple myeloma cell line. The cells were distributed onto microplates and exposed to the test compounds for 48 hours.

[3] = tested on: Monomac1 cells; assay: Viability of Monomac1 AML cell line, CellTiterGlo 72 h; type: cell-based; conditions: Mono-Mac-1, 72 h; read-out: IC50 M (CTG 72 h) Monomac1
Description: Monomac1 cells were cultivated in RPMI supplemented with 10% heat inactivated fetal bovine serum, penicillin (100 IU/ml), streptomycin ([…]) and L-glutamine (2 mM). Cell lines were cultured at 37° C. in a humidified atmosphere containing 5% CO2. Cells were seeded in 96 microwell plates and exposed to the payloads or ADCs for 72 h (serially diluted; 9 concentrations each, triplicates). Effects of payloads or ADCs on cell viability were assessed after 3 days of incubation at 37° C./5% CO2 by quantification of cellular ATP levels using CellTiterGlo at 75 μL reagent/well. All the conditions were tested in triplicates. Luminescence was quantified on a multipurpose plate reader. IC50s were calculated using standard four-parametric curve fitting. […] Each experiment was performed at least twice, with results being reproducible.

[4] = tested on: EOL1 human acute myeloid (eosinophilic) leukemia xenograft model; assay: EOL1 xenograft, CD74-ADCs Fc silent with different linker payloads (Example 15); type: in vivo, mice; conditions: for T/C (%): day 10; for ΔTumor volume (mm^3): day 10, mean
Description: To optimize the linker payload, efficacy of 6 CD74-ADCs with different linker payloads (L5-P1, L30-P1, L31-P1, L32-P1, L33-P1 and L34-P1) was evaluated in the EOL1 model in vivo.
EOL1 luciferase transfected cells were cultured at 37° C. in an atmosphere of 5% CO2 in air in RPM11640 (BioConcept Ltd. Amimed) supplemented with 10% FCS (BioConcept Ltd. Amimed, #2-01 F30-1), 2 mM L-glutamine (BioConcept Ltd. Amimed, #5-10K00-H) and 1 mM sodium pyruvate (BioConcept Ltd. Amimed, #5-60F00-H), 10 mM HEPES (Gibco #11560496). To establish EOL1 xenografts cells were harvested and re-suspended in HBSS (Gibco, #14175) before injecting 100 μL containing 5×10^6 cells subcutaneously in the flanks of female SCID beige mice (Charles River, Germany). Tumor growth was monitored regularly post cell inoculation and animals were randomized into treatment groups (n=6) with a mean tumor volume of about 130 mm^3. The ADCs were administered intravenously (iv) once at the start of treatment at 2.5 mg/kg or at 3.3 mg/kg in combination with venetoclax which was administered orally (po) daily (qd) at 50 mg/kg. Doses were adjusted to individual mouse body weights. The iv dose volume was 10 ml/kg and each ADC was dissolved in 0.9% (w/v) NaCl in water. Tumor volume data on day 10 post treatment were analyzed statistically using one way ANOVA post hoc Tukey's multiple comparisons test (Indigo Software). Results are presented as mean±SEM. As a measure of efficacy the % T/C value is calculated on day 10 according to:
(Δtumor volume^treated/Δtumor volume^control)*100
Tumor regression was calculated according to:
−(Δtumor volume^treated/tumor volume^treated at start)*100
Where Δtumor volumes represent the mean tumor volume on the evaluation day minus the mean tumor volume at the start of the experiment.

[5] = 2.5 mg/kg i.v. once + Venetoclax 50 mg/kg p.o. qd
[6] = 3.3 mg/kg i.v. once + Venetoclax 50 mg/kg p.o. qd
[7] = female SCID beige mice, 2.5 mg/kg i.v. once + Venetoclax 50 mg/kg p.o. qd

Chain of Mcl-1 protein (Q07820 whole entry): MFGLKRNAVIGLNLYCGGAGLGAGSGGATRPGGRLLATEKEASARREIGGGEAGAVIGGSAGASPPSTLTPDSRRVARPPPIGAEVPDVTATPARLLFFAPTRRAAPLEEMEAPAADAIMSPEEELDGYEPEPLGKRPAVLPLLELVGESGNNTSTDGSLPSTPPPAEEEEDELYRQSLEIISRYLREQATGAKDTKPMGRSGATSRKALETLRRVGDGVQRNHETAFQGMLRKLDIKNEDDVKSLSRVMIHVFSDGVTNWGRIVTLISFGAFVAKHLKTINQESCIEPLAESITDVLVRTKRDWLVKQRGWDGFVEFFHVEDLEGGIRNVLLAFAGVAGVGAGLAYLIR

IC50 [1] [nM]	Compound	IC50 ([2]; Homo sapiens) [nM]	other results
3.4	COc1ccccc1-c1nccc(COc2ccccc2C[C@@H](Oc2ncnc3sc(-c4ccc(F)c(OCC(F)(F)F)c4)c(-c4ccc(OCCN5CCN(C)CC5)c(Cl)c4C)c23)C(=O)O)n1 [C10, (2R)-2-[(5Sa)-5-[3-chloro-2-methyl-4-[2-(4-methylpiperazin-1-yl)ethoxy]phenyl]-6-[4-fluoro-3-(2,2,2-trifluoroethoxy)phenyl]thieno[2,3-d]pyrimidin-4-yl]oxy-3-[2-[[2-(2-methoxyphenyl)pyrimidin-4-yl]methoxy]phenyl]propanoic Acid]	13.5	–
0.948	COc1ccccc1-c1nccc(COc2ccccc2C[C@@H](Oc2ncnc3sc(-c4ccc(F)cc4)c(-c4ccc(OCCN5CCNCC5)c(Cl)c4C)c23)C(=O)O)n1 [C3, (2R)-2-[(5Sa)-5-[3-chloro-2-methyl-4-(2-piperazin-1-ylethoxy)phenyl]-6-(4-fluorophenyl)thieno[2,3-d]pyrimidin-4-yl]oxy-3-[2-[[2-(2-methoxyphenyl)pyrimidin-4-yl]methoxy]phenyl]propanoic acid]	42	–
2.2	COc1ccccc1-c1nccc(COc2ccccc2C[C@@H](Oc2ncnc3sc(-c4cc(N)c(F)c(F)c4)c(-c4ccc(OCCN5CCN(C)CC5)c(Cl)c4C)c23)C(=O)O)n1 [C13, (2R)-2-{[(5Sa)-6-(3-amino-4,5-difluorophenyl)-5-{3-chloro-2-methyl-4-[2-(4-methylpiperazin-1-yl)ethoxy]phenyl}thieno[2,3-d]pyrimidin-4-yl]oxy}-3-(2-{[2-(2-methoxyphenyl)pyrimidin-4-yl]methoxy}phenyl)propanoic acid]	3.76	–
2.6	CC#Cc1sc2ncnc(O[C@H](Cc3ccccc3OCc3ccnc(-c4ccccc4OC)n3)C(=O)O)c2c1-c1ccc(OCCN2CCN(C)CC2)c(Cl)c1CC [C7, (2R)-2-[(5Sa)-5-[3-chloro-2-ethyl-4-[2-(4-methylpiperazin-1-yl)ethoxy]phenyl]-6-prop-1-ynyl-thieno[2,3-d]pyrimidin-4-yl]oxy-3-[2-[[2-(2-methoxyphenyl)pyrimidin-4-yl]methoxy]phenyl]propanoic Acid]	1.88	–
2.5	Cc1c(-c2c(-c3ccc(F)cc3)sc3ncnc(O[C@H](Cc4ccccc4OCc4ccnc(-c5cccc(S(=O)(=O)O)c5)n4)C(=O)O)c23)ccc(OCCN2CCN(C)CC2)c1Cl [C9, (2R)-2-{[(5Sa)-5-{3-chloro-2-methyl-4-[2-(4-methylpiperazin-1-yl)ethoxy]phenyl}-6-(4-fluorophenyl)thieno[2,3-d]pyrimidin-4-yl]oxy}-3-(2-{[2-(3-sulfophenyl)pyrimidin-4-yl]methoxy}phenyl)propanoic acid]	2270	–
–	Cc1c(Cl)c2c(Cl)c(C)c1-c1c(-c3ccc(F)cc3)sc3ncnc(c13)O[C@@H](C(=O)O)Cc1cc(ccc1OCc1ccnc([C@H]3CC[C@H](OC[C@@H]4COCCO4)CC3)n1)OC[C@@H](CN1CCN(C)CC1)O2 [P17, (11R,20R)-23,26-dichloro-14-[[2-[4-[[(2S)-1,4-dioxan-2-yl]methoxy]cyclohexyl]pyrimidin-4-yl]methoxy]-3-(4-fluorophenyl)-24,25-dimethyl-20-[(4-methylpiperazin-1-yl)methyl]-10,18,21-trioxa-4-thia-6,8-diazapentacyclo[20.2.2.12,5.113,17.09,28]octacosa-1(24),2,5(28),6,8,13,15,17(27),22,25-decaene-11-carboxylic Acid]	–	pIC50 [3]: 9.21
–	COCCOCCOCCOCCOCCOCCOCCOCCOCCOCCOCCOCCOCCOCCOCCOCCn1cc(COCc2cc(NC(=O)[C@H](CCCNC(N)=O)NC(=O)[C@@H](NC(=O)CCOCCN3C(=O)CC(C)C3=O)C(C)C)ccc2C[N+]2(C)CCN(CCOc3ccc(-c4c(-c5ccc(F)cc5)sc5ncnc(O[C@H](Cc6ccccc6OCc6ccnc(-c7ccccc7OC)n6)C(=O)O)c45)c(C)c3Cl)CC2)nn1 (stereo partly shown) [CD74-L34-P1]	–	T/C (%) [4, 5]: 40* %; T/C (%) [4, 6]: 17*^$ %; ΔTumor volume (mm^3) [4, 6]: 170 mm^3; ΔTumor volume (mm^3) [4, 7]: 401 mm^3
–	COCCOCCOCCOCCOCCOCCOCCOCCOCCOCCOCCOCCC(=O)N(C)Cc1cc(NC(=O)[C@H](CCCNC(N)=O)NC(=O)[C@@H](NC(=O)CCOCCN2C(=O)CC(C)C2=O)C(C)C)ccc1C[N+]1(C)CCN(CCOc2ccc(-c3c(-c4ccc(F)cc4)sc4ncnc(O[C@H](Cc5ccccc5OCc5ccnc(-c6ccccc6OC)n5)C(=O)O)c34)c(C)c2Cl)CC1 (stereo partly shown) [CD74-L32-P1]	–	T/C (%) [4, 5]: 4*^$ %; ΔTumor volume (mm^3) [4, 7]: 38 mm^3
–	Cc1c(Cl)c2c(Cl)c(C)c1-c1c(-c3ccc(F)cc3)sc3ncnc(c13)O[C@@H](C(=O)O)Cc1cc(ccc1OCc1ccnc([C@H]3CC[C@](F)(COC[C@@H]4COCCO4)CC3)n1)OC[C@@H](CN1CCN(C)CC1)O2 [P16, (11R,20R)-23,26-dichloro-14-[[2-[4-[[(2S)-1,4-dioxan-2-yl]methoxymethyl]-4-fluoro-cyclohexyl]pyrimidin-4-yl]methoxy]-3-(4-fluorophenyl)-24,25-dimethyl-20-[(4-methylpiperazin-1-yl)methyl]-10,18,21-trioxa-4-thia-6,8-diazapentacyclo[20.2.2.12,5.113,17.09,28]octacosa-1(24),2,5(28),6,8,13,15,17(27),22,25-decaene-11-carboxylic Acid]	–	pIC50 [3]: 9.55
0.84	COc1c(O)cccc1-c1nccc(COc2ccccc2C[C@@H](Oc2ncnc3sc(-c4ccc(F)cc4)c(-c4ccc(OCCN5CCN(C)CC5)c(Cl)c4C)c23)C(=O)O)n1 [C14, (2R)-2-{[(5Sa)-5-{3-chloro-2-methyl-4-[2-(4-methylpiperazin-1-yl)ethoxy]phenyl}-6-(4-fluorophenyl)thieno[2,3-d]pyrimidin-4-yl]oxy}-3-(2-{[2-(3-hydroxy-2-methoxyphenyl)pyrimidin-4-yl]methoxy}phenyl)propanoic Acid]	2.61	–
2.6	Cc1c(-c2c(-c3ccc(F)cc3)sc3ncnc(OC(Cc4ccccc4OCc4ccnc(-c5ccc(CP(=O)(O)O)cc5)n4)C(=O)O)c23)ccc(OCCN2CCNCC2)c1Cl [C4, (2R)-2-[(5Sa)-5-[3-chloro-2-methyl-4-(2-piperazin-1-ylethoxy)phenyl]-6-(4-fluorophenyl)thieno[2,3-d]pyrimidin-4-yl]oxy-3-[2-[[2-[4-(phosphonomethyl)phenyl]pyrimidin-4-yl]methoxy]phenyl]propanoic acid]	3210	–
2.6	COc1ccccc1-c1nccc(COc2ccccc2C[C@@H](Oc2ncnc3sc(-c4ccc(F)c(O)c4)c(-c4ccc(OCCN5CC[N+](C)(CCCS(=O)(=O)[O-])CC5)c(Cl)c4C)c23)C(=O)O)n1 [C2, (2R)-2-[(5Sa)-5-[3-chloro-2-methyl-4-[2-[4-methyl-4-(3-sulfopropyl)piperazin-4-ium-1-yl]ethoxy]phenyl]-6-(4-fluoro-3-hydroxy-phenyl)thieno[2,3-d]pyrimidin-4-yl]oxy-3-[2-[[2-(2-methoxyphenyl)pyrimidin-4-yl]methoxy]phenyl]propanoic acid]	8510	–
3	Cc1c(-c2c(-c3ccc(F)cc3)sc3ncnc(O[C@H](Cc4ccccc4OCc4ccnc(-c5cccc(OS(=O)(=O)O)c5)n4)C(=O)O)c23)ccc(OCCN2CCN(C)CC2)c1Cl [C8, (2R)-2-[(5Sa)-5-[3-chloro-2-methyl-4-[2-(4-methylpiperazin-1-yl)ethoxy]phenyl]-6-(4-fluorophenyl)thieno[2,3-d]pyrimidin-4-yl]oxy-3-[2-[[2-(3-sulfooxyphenyl)pyrimidin-4-yl]methoxy]phenyl]propanoic acid]	574	–

Compound	IC50 [1] [nM]	IC50 ([2]; Homo sapiens) [nM]	other results
(2R)-2-{[(5Sa)-5-{3-chloro-2-methyl-4-[2-(4-methylpiperazin-1-yl)ethoxy]phenyl}-6-(4-fluorophenyl)thieno[2,3-d]pyrimidin-4-yl]oxy}-3-(2-{[2-(4-hydroxyphenyl)pyrimidin-4-yl]methoxy}phenyl)propanoic Acid [C5]	4.05	–	IC50 [2]: 4.08 nM
